The values that follow come from patent US11608335B2, “Somatostatin modulators and uses thereof” (CRINETICS PHARMACEUTICALS, INC., priority 2018, dated 2023).

The structures appear in SMILES notation. Where two headings read alike, the source gives them in different places.

The target in data set [1] is T1, Cytochrome P450 (CYP) 2D6 enzyme (Homo sapiens, UniProt P10635).
T1 construct: using pooled male and female human liver microsomes; from tissue; host or cells: pooled male and female human liver microsomes
Briefly: Cytochrome P450 (CYP) 2D6 enzyme time dependent inhibition (TDI) assay. The data set is classed as in vitro ADME. The following applies: human liver microsomes. As for the experimental part:
Example B-3: Cytochrome P450 (CYP) 2D6 Enzyme Time Dependent Inhibition (TDI) Assay Protocol
The NADPH-generating system mix was composed of potassium phosphate buffer pH 7.4 (50 mM), NADP+ (1 mM), magnesium chloride (3 mM), EDTA (1 mM), glucose-6-phosphate (5 mM), glucose-6-phosphate dehydrogenase (1 Unit/mL), human liver microsomes (0.1 mg/mL) and water. Compounds of interest in DMSO serial diluted to six different concentrations (final DMSO content of 0.1% v/v) were added to the NADPH-generating system. CYP 2D6 substrate Dextromethorphan was added at a final incubation concentration of 5 μM. The final incubation volume was 200 μL. Incubations were conducted at 37° C. for 10 minutes in a shaking water bath to evaluate the drug candidates as […] of CYP 2D6. In a separate test plate, drug candidates were pre-incubated at 37° C. for 30 minutes in a shaking water bath in NADPH-generating system mix in the absence of Dextromethorphan substrate to allow for the formation of metabolites. This plate was removed from the water bath and placed on ice for 5 minutes. Dextromethorphan substrate was then added and the plate was incubated at 37° C. for 10 minutes in a shaking water bath to determine if any metabolites formed during the 30 minute pre-incubation inhibit the CYP 2D6 enzyme. All incubations were terminated by removing 50 μL of incubation mixture and adding to 200 μL of ice cold acetonitrile containing internal standard. Following precipitation by centrifugation at 3500 rpm and 4° C. for 30 minutes, the resultant supernatant were analyzed by using a multiple reaction monitoring (MRM) LC-MS/MS method detecting for internal standard and the CYP 2D6 enzyme mediated Dextromethorphan O-demethylation metabolite Dextrorphan and IC50 values were determined.
(§1) Table E illustrates representative human liver microsomal stability and time dependent CYP2D6 inhibition (TDI) of exemplary compounds.

A short description of data set [2]: Liver microsomal stability assay. The data set is classed as in vitro ADME. The following applies: both sexes, human, pooled human liver microsomes; read-out: HLM Stability t½. As for the experimental part:
Example B-2: Liver Microsomal Stability Assay Protocol
The in vitro stabilities of compounds of interest were determined for various species using pooled male and female human, pooled male Sprague-Dawley rat, pooled male Cynomolgus monkey, and pooled male Beagle dog liver microsomes at microsomal protein concentrations of 0.5 mg/mL. Incubations were carried out in a potassium phosphate buffer (50 mM). The NADPH-generating system was composed of NADP+ (1 mM), magnesium chloride (3 mM), EDTA (1 mM), glucose-6-phosphate (5 mM) and glucose-6-phosphate dehydrogenase (1 Unit/mL) for all experiments. Compounds of interest in DMSO/acetonitrile were added to achieve a final incubation concentration of 1 μM (final DMSO content was 0.1% v/v and final acetonitrile content was 0.9%). The final incubation volume was 400 μL. Incubations were conducted at 37° C. for 0, 5, 10, 20, 40 and 60 minutes in a shaking water bath and terminated by removing 50 μL of incubation mixture and adding to 100 μL of ice cold acetonitrile containing internal standard. Following precipitation by centrifugation at 3500 rpm and 4° C. for 30 minutes, compounds of interest and internal standard were analyzed in the resultant supernatant using a multiple reaction monitoring (MRM) LC-MS/MS method. MS conditions were optimized for each analyte.
as §1

Data set [3] has as its target human somatostatin receptor subtype 5 (Homo sapiens, UniProt P35346). Put plainly: cAMP assay for SST5R (inhibition of cAMP via human SST5 receptor). The following applies: for Fold selectivity for SST5 vs SST2: SST5 over SST2, class symbols.
Data set [4] has as its target T2, human somatostatin receptor subtype 3 (Homo sapiens, UniProt P32745).
T2 construct: expressed in transfected cells
Put plainly: cAMP assay for SST3R (inhibition of cAMP via human SST3 receptor). It is filed as cell-based. The following applies: from inhibition of cAMP via human SST5 receptor and human SST3 receptor. An excerpt:
cAMP Assay Protocol for SST3R:
Background: Cyclic AMP is a second messenger, typically raised through Gs and lowered through Gi signalling.

In data set [5] the target is T3, human somatostatin receptor subtype 4 (Homo sapiens, UniProt P31391).
T3 construct: expressed in transfected cells
Briefly: cAMP assay for hSST4R (inhibition of cAMP via human SST4 receptor). The following applies: from inhibition of cAMP via human SST5 receptor and human SST4 receptor. The data set is classed as cell-based. The text has this:
cAMP Assay Protocol hSST4R:

In data set [6] the target is T4, human somatostatin receptor subtype 2 (Homo sapiens, UniProt P30874).
T4 construct: expressed in transfected cells
Briefly: cAMP assay for SST2R (inhibition of cAMP via human SST2 receptor). The data set is classed as cell-based. The following applies: Table B, read-out: SST2 potency. The text has this:
cAMP Assay Protocol for SST2R:

The mark [7] stands for this setting: t = 0 min pre-incubation, read-out: CYP2D6 inhibition, IC50 (μM) t = 0 min.
[8] abbreviates: t = 30 min pre-incubation, read-out: CYP2D6 inhibition, IC50 (μM) t = 30 min.
The mark [9] stands for this setting: read-out: SST5 potency, inhibition of cAMP via human SST5 receptor, Table B.

One may read the IC50 as the concentration needed to halve the response being measured.

T1 sequence (P10635 whole entry): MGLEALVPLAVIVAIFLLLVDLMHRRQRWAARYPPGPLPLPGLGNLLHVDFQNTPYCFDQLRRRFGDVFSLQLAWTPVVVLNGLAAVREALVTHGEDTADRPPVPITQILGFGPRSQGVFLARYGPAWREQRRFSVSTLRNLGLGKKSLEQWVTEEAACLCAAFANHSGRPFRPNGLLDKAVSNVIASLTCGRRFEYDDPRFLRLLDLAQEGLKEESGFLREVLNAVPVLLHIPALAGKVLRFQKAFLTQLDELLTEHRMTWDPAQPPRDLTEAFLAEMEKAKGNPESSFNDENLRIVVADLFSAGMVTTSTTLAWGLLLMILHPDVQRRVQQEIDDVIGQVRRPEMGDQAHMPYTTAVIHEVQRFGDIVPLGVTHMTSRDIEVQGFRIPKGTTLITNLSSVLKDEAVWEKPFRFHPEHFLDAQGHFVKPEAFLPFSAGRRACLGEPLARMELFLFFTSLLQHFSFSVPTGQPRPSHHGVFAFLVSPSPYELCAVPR
Chain of human somatostatin receptor subtype 5 (P35346 whole entry): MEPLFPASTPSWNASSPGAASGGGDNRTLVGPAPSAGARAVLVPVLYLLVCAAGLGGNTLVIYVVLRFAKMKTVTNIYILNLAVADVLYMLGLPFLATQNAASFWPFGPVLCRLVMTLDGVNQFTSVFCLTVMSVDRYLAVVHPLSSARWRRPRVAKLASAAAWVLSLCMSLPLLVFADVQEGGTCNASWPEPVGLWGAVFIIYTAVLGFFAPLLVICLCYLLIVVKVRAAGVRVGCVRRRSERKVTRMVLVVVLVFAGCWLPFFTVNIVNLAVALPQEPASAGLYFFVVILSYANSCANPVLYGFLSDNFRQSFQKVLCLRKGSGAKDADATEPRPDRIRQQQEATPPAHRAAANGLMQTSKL
T4 sequence (P30874 whole entry): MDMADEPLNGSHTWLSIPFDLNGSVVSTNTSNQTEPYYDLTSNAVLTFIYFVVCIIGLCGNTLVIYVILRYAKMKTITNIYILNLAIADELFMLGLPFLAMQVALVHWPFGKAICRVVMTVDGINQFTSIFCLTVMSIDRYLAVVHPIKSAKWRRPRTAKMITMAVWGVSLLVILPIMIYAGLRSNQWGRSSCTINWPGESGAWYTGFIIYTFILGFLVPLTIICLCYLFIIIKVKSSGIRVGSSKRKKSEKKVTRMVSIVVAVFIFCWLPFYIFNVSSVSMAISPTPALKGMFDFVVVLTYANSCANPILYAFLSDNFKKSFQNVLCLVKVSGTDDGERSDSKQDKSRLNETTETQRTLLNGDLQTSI
T3 sequence (P31391 whole entry): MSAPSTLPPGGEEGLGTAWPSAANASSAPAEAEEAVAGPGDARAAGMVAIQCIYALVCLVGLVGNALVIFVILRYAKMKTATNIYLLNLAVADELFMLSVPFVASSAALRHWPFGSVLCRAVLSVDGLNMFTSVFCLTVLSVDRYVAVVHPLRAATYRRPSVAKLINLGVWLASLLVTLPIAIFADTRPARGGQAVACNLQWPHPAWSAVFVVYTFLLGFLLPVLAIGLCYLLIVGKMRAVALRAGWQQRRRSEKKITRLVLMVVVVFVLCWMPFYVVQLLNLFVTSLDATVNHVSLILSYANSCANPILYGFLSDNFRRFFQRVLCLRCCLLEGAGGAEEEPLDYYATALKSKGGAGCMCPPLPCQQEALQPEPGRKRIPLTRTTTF
T2 sequence (P32745 whole entry): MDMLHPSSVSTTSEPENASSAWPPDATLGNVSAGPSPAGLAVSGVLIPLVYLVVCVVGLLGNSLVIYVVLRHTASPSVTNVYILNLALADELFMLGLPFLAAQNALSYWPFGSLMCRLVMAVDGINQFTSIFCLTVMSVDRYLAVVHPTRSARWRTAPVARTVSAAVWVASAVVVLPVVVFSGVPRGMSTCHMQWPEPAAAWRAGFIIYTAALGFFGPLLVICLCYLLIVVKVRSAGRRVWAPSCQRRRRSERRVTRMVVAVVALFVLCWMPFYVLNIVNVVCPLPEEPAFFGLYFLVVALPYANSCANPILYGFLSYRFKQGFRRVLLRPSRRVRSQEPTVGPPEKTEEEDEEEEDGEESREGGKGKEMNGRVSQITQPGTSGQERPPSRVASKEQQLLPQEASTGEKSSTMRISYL

Consider `C[C@]1(N)CCN(c2c(-c3ccnc(C#N)c3)cncc2-c2nc3c(F)cccc3[nH]2)C1` [Compound 2-162, 4-[(3S)-3-amino-3-methylpyrrolidin-1-yl]-5-(4-fluoro-1H-1,3-benzodiazol-2-yl)-[3,4′-bipyridine]-2′-carbonitrile], for which the IC50 in data set [1] (setting [7]) and in data set [1] (setting [8]) was > 10 µM in each case. Further, the half-life at 1 μM in data set [2] is > 11.6 h. Besides, the results for the EC50 in data set [3], in data set [3] (setting [9]) and in data set [6] were < 0.01 µM, < 0.01 µM and 0.1 to 1 µM, respectively. Moreover, the “Fold selectivity for SST5 vs SST2” value in data set [3] is reported as “+++ (+++=≥500)”. The “Fold selectivity for SST5 vs SST3” value in data set [4] turned out to be 517 fold. In addition, the “Fold selectivity for SST5 vs SST4” value in data set [5] was 109 fold.

In the case of `Cc1cc(F)cc(-c2cncc(-c3nc4cccc(C)c4[nH]3)c2N2CC[C@H](N)C2)c1` [Compound 2-182, (3S)-1-[3-(3-fluoro-5-methylphenyl)-5-(4-methyl-1H-1,3-benzodiazol-2-yl)pyridin-4-yl]pyrrolidin-3-amine], the IC50 in data set [1] (setting [7]) is 7.6 µM; in data set [1] (setting [8]), 6.5 µM. Besides, the half-life at 1 μM in data set [2] was 0.883 h. Besides, the EC50 was < 0.01 µM in data set [3], < 0.01 µM in data set [3] (setting [9]) and 0.1 to 1 µM in data set [6]. Also, the “Fold selectivity for SST5 vs SST2” value in data set [3] was “++ (++=100 to 499)”. For the same compound, the “Fold selectivity for SST5 vs SST3” value in data set [4] is given as 6.3 fold. In data set [5], the “Fold selectivity for SST5 vs SST4” value stood at 0.94 fold.

Consider `Cc1cccc2nc(-c3cncc(-c4cc(F)cc(Cl)c4)c3N3CC[C@H](N)C3)[nH]c12` [Compound 2-183, (3S)-1-[3-(3-chloro-5-fluorophenyl)-5-(4-methyl-1H-1,3-benzodiazol-2-yl)pyridin-4-yl]pyrrolidin-3-amine], for which the IC50 in data set [1] (setting [7]) worked out at 6.4 µM; in data set [1] (setting [8]), 3.5 µM. Besides, the half-life at 1 μM in data set [2] was 1.28 h. In addition, the EC50 was < 0.01 µM in data set [3], < 0.01 µM in data set [3] (setting [9]) and 0.1 to 1 µM in data set [6]. For the same compound, in data set [3], the “Fold selectivity for SST5 vs SST2” value is listed as “++ (++=100 to 499)”. The “Fold selectivity for SST5 vs SST3” value in data set [4] is recorded as 6.7 fold. Moreover, the “Fold selectivity for SST5 vs SST4” value in data set [5] is 4.0 fold.

On to `COc1cc(F)cc(-c2cncc(-c3nc4c(C)cccc4[nH]3)c2N2CC[C@H](N)C2)c1` [Compound 2-184, (3S)-1-[3-(3-fluoro-5-methoxyphenyl)-5-(4-methyl-1H-1,3-benzodiazol-2-yl)pyridin-4-yl]pyrrolidin-3-amine], for which the 50% inhibitory concentration (IC50) in data set [1] (setting [7]) stood at 4.2 µM; in data set [1] (setting [8]), 2.5 µM. Besides, the half-life at 1 μM in data set [2] was 0.967 h. In addition, the EC50 is < 0.01 µM in data set [3], < 0.01 µM in data set [3] (setting [9]) and 0.1 to 1 µM in data set [6]. Also, the “Fold selectivity for SST5 vs SST2” value in data set [3] is “++ (++=100 to 499)”. In data set [4], the “Fold selectivity for SST5 vs SST3” value was 7.0 fold. The “Fold selectivity for SST5 vs SST4” value in data set [5] came out at 1.4 fold.

Consider `Cc1cccc2nc(-c3cncc(-c4cc(F)cc(C(F)(F)F)c4)c3N3CC[C@H](N)C3)[nH]c12` [Compound 2-185, (3S)-1-{3-[3-fluoro-5-(trifluoromethyl)phenyl]-5-(4-methyl-1H-1,3-benzodiazol-2-yl)pyridin-4-yl}pyrrolidin-3-amine], for which the IC50 in data set [1] (setting [7]) was found to be 9.5 µM; in data set [1] (setting [8]), 2.3 µM. In addition, the half-life at 1 μM in data set [2] turned out to be 1.28 h. Moreover, the EC50 in data set [3] was < 0.01 µM; in data set [3] (setting [9]), < 0.01 µM; in data set [6] it was 0.1 to 1 µM. In data set [3], the “Fold selectivity for SST5 vs SST2” value was “++ (++=100 to 499)”. Moreover, in data set [4], the “Fold selectivity for SST5 vs SST3” value was determined as 6.1 fold. In data set [5], the “Fold selectivity for SST5 vs SST4” value is listed as 1.2 fold.

With `Cc1ccnc2nc(-c3cncc(-c4ccc(F)c(Cl)c4)c3N3CC[C@](C)(N)C3)[nH]c12` [Compound 2-192, (3S)-1-[3-(3-chloro-4-fluorophenyl)-5-{7-methyl-1H-imidazo[4,5-b]pyridin-2-yl}pyridin-4-yl]-3-methylpyrrolidin-3-amine], the IC50 in data set [1] (setting [7]) amounted to 4.2 µM; in data set [1] (setting [8]) it was 4.7 µM. In addition, in data set [2], the half-life at 1 μM turned out to be 1.65 h. The EC50 in data set [3] is < 0.01 µM; in data set [3] (setting [9]), < 0.01 µM; in data set [6], 0.01 to 0.1 µM. Also, the “Fold selectivity for SST5 vs SST2” value in data set [3] is reported as “++ (++=100 to 499)”. In addition, in data set [4], the “Fold selectivity for SST5 vs SST3” value is given as 18 fold.

Take `Cc1cccc2nc(-c3cncc(-c4cc(F)cc(F)c4)c3N3CC[C@H](N)C3)[nH]c12` [Compound 2-201, (3S)-1-[3-(3,5-difluorophenyl)-5-(4-methyl-1H-1,3-benzodiazol-2-yl)pyridin-4-yl]pyrrolidin-3-amine]: the IC50 in data set [1] (setting [7]) worked out at 4.7 µM; in data set [1] (setting [8]), 1.8 µM. In addition, the half-life at 1 μM in data set [2] was 2.88 h. In addition, the EC50 is < 0.01 µM in data set [3], < 0.01 µM in data set [3] (setting [9]) and 0.01 to 0.1 µM in data set [6]. Further, in data set [3], the “Fold selectivity for SST5 vs SST2” value was “+ (+=10 to 99)”. Moreover, the “Fold selectivity for SST5 vs SST3” value in data set [4] is on record as 5.1 fold. Also, in data set [5], the “Fold selectivity for SST5 vs SST4” value was 1.0 fold.
